pIC50: −log10 of the molar value.
What was measured:
TLE mice model [1] = experiment: Pilocarpine TLE epilepsy model, IP pre-treatment; conditions: 5 mg/Kg IP each day three days before Pilocarpine
Protocol: The injected animals were observed by 60 min after the Pilocarpine.

TLE mice model [2] = experiment: Pilocarpine-induced status epilepticus (SE) after 15 days of supplemented diet; type: in vivo, mice (C57BL/6)
Protocol: In this example, the ability of compound embodiments of the present disclosure to increase survival and diminish seizure symptoms in a TLE mice model was evaluated. […] The animals' weights were determined the week before and during the two weeks of c-Abl inhibitors treatment (results are provided in Table 12 and are illustrated graphically in FIG. 28). After 15 days of feeding, status epilepticus (SE) induction was evaluated. The mice were IP injected with Scopolamine (1.5 mg/Kg) and after 15 minutes, the SE was induced by IP injection of Pilocarpine (420 mg/Kg). The animals' behavior and the seizures induction was evaluated according to Racine's scale and the survival was determined during 60 minutes post-SE induction. […] Results are tabulated in Table 13, below and also are illustrated graphically in FIGS. 29A-29D.

[3] = Pharmacokinetic profile in brain; type: in vivo, mice; conditions: 12.5 mg/kg IP
hippocampal neurons = experiment: Neuronal death induced by Glutamate, MTT cell viability test
[4] = test system: P. falciparum strain NF54 asexual parasites; experiment: Asexual stage parasite growth inhibition, SYBR Green assay, 72 hours; type: cell-based; conditions: NF54, 72 hours
Protocol: In this example, several of the c-Abl inhibitors were tested in the asexual […] strain of P. falciparum parasites for activity against malaria. […] The pre-diluted parasites were dispensed into a 1536-well plate (2.5 μL/well). […] The fluorescence of each well was measured at 520 nm following excitation at 490 nm using a ViewLux platereader (PerkinElmer).

Leukemia K562 cell = Leukemia K562 cell proliferation/viability assay (CellTiterGlo, 48 hours); type: cell-based; set-up: unit not given here; conditions: K562 cells
Procedure, shortened: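 BCR-Abl-dependent K562 cells treated with compound for 48 hours in an HTS-adapted format. Viability read out with CellTiterGlo reagent.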

CML (K562) cell line = experiment: K562 cell proliferation inhibition by MTT assay, 48 hours; type: cell-based; conditions: Homo sapiens; K562, 48 hours, determined in different assays
Protocol: In this example, the ability of two compound embodiments described here, NCGC00373060 and NCGC00373056, to induce cell death in the CML (K562) cell line was evaluated. The leukemia cells were incubated with different concentrations of the compounds for 48 hours, and the cell proliferation inhibition was evaluated by the MTT assay. […] The leukemia cells were incubated with different concentrations of each compound embodiment for 48 hours, and the cell proliferation inhibition was evaluated by the MTT assay.

[5] = Pharmacokinetic profile in plasma; type: in vivo, mice; conditions: 12.5 mg/kg IP
[6] = mean, diet 67 ppm NCGC00373060 or 200 ppm Nilotinib

With `O=C1Nc2cc(OC(F)(F)F)ccc2Oc2ccc(-c3ccnc(N4CCNCC4)c3)cc21` [NCGC00373060, 2-(2-(Piperazin-1-yl)pyridin-4-yl)-8-(trifluoromethoxy)dibenzo[b,j][1,4]oxazepin-11(10H)-one] the “mortality associated to the epileptic status” value (TLE mice model [1]) was “decreases the mortality associated to the epileptic status”, the “seizures, latency time” value (TLE mice model [1]) was “prevented the seizures increasing the latency time” and the Survival % (TLE mice model [2]; individual mice, 60 minutes post-SE induction) was 100%. For the same compound, the “Latency SE” value (TLE mice model [2]; individual mice, diet 67 ppm NCGC00373060 or 200 ppm Nilotinib) was 19 min, the “Survival %, mean” value (TLE mice model [2]; mean, 60 minutes post-SE induction) was 100% and the “Latency SE, mean” value (TLE mice model [2]; [6]) was 19 min. The “SE %, mean” value (TLE mice model [2]; [6]) was 40%, the Brain concentration ([3]; Time 0.167) was 0.208 µmol/kg and the Brain concentration ([3]; Time 0.5) was 0.275 µmol/kg. The Brain concentration ([3]; Time 1) was 0.595 µmol/kg, the Brain concentration ([3]; Time 2) was 0.912 µmol/kg and the Brain concentration ([3]; Time 4) was 1.351 µmol/kg. For the same compound, the Brain concentration ([3]; Time 7) was 1.887 µmol/kg, the Brain concentration ([3]; Time 24) was 1.198 µmol/kg and the Brain concentration ([3]; Time 48) was 0.493 µmol/kg. For the same compound, the Brain concentration ([3]; Time 72) was 0.208 µmol/kg, the Brain concentration ([3]; Time 96) was 0.089 µmol/kg and the Brain concentration ([3]; Time 120) was 0.044 µmol/kg. The Brain concentration ([3]; Time 168) was 0.010 µmol/kg, the “protection against neuronal death induced by Glutamate” value (hippocampal neurons) was “protects neurons against neuronal death induced by Glutamate” and the “% Killing” value [4] was 89.9%. The pIC50 ([4]; Plasmodium falciparum) was 5.79, the Efficacy (Leukemia K562 cell) was −99.1 and the AC50 (CML (K562) cell line) was 5 µM. It also gave a Plasma concentration ([5]; Time 0.167) of 4440 nM, a Plasma concentration ([5]; Time 0.5) of 4784 nM and a Plasma concentration ([5]; Time 1) of 7844 nM. The Plasma concentration ([5]; Time 2) was 4112 nM, the Plasma concentration ([5]; Time 4) was 2709 nM and the Plasma concentration ([5]; Time 7) was 1723 nM. It also gave a Plasma concentration ([5]; Time 24) of 581 nM, a Plasma concentration ([5]; Time 48) of 138 nM and a Plasma concentration ([5]; Time 72) of 70 nM. The Plasma concentration ([5]; Time 96) was 36 nM, the Plasma concentration ([5]; Time 120) was 11 nM and the Plasma concentration ([5]; Time 168) was 4 nM.
